Assay results published in US5977133A, “Pyridone antibiotic with improved safety profile” (priority 1998, dated 1999).

Columns and labels:
C. freundii = experiment: In vitro MIC, agar dilution; format: cell-based; conditions: C. freundii, 20 isolates
E. faecalis (VanS) = experiment: In vitro MIC, agar dilution; format: cell-based; conditions: E. faecalis (VanS), 17 isolates
Legionella spp. = experiment: microbe, parasite or virus in culture; format: cell-based
N. gonorrhoeae = experiment: In vitro MIC, agar dilution; format: cell-based; conditions: N. gonorrhoeae, 12 isolates
M. pneumoniae = experiment: In vitro MIC, agar dilution; format: cell-based; conditions: M. pneumoniae, 7 isolates
H. pylori = experiment: In vitro MIC, agar dilution; format: cell-based; conditions: H. pylori, 17 isolates
Klebsiella spp. = experiment: In vitro MIC, agar dilution; format: cell-based; conditions: Klebsiella spp., 29 isolates
S. epidermidis (CiproR) = experiment: In vitro MIC, agar dilution; format: cell-based; conditions: S. epidermidis (CiproR), 11 isolates
Providencia spp. = experiment: In vitro MIC, agar dilution; format: cell-based; conditions: Providencia spp., 28 isolates
M. avium = experiment: In vitro MIC, agar dilution; format: cell-based; conditions: M. avium, 20 isolates
M. catarrhalis = experiment: In vitro MIC, agar dilution; format: cell-based; conditions: M. catarrhalis, 18 isolates
S. pneumoniae (PenR) = experiment: In vitro MIC, agar dilution; format: cell-based; conditions: S. pneumoniae (PenR), 25 isolates
S. pyogenes = experiment: In vitro MIC, agar dilution; format: cell-based; conditions: S. pyogenes, 21 isolates
Enterobacter spp. = experiment: In vitro MIC, agar dilution; format: cell-based; conditions: Enterobacter spp., 35 isolates
C. difficile = experiment: In vitro MIC, agar dilution; format: cell-based; conditions: C. difficile, 10 isolates
S. aureus (CiproR) = experiment: In vitro MIC, agar dilution; format: cell-based; conditions: S. aureus (CiproR), 25 isolates
Salmonella spp. = experiment: In vitro MIC, agar dilution; format: cell-based; conditions: 23 isolates
Method: (§1) Each plate was inoculated with 1:100 (or 1:10 for slow-growing strains, primarily Micrococcus and Streptococcus) dilutions of up to 32 different microorganisms, using a Steers replicator block calibrated to deliver approximately 10^4 colony forming units (CFU's). The inoculated plates were incubated at from about 35° C. to about 37 ° C. for approximately 20-24 hours. In addition, a control plate using BHI agar containing no test compound was prepared and incubated at the beginning and at the end of each test. The quinolone antibacterial ciprofloxacin was used as a control ("Cntl").
(§2) The numbers below the microorganism species indicate the nunbers of isolates tested. […] The MIC is defined as the lowest concentration of test compound yielding no growth (a slight haze or sparsely isolated colonies at the inoculum spot) as compared to the growth control containing no test compound.

E. coli = experiment: In vitro MIC, agar dilution; format: cell-based; conditions: 25 isolates
Method: as §1, §2

S. epidermidis (CiproS) = experiment: In vitro MIC, agar dilution; format: cell-based; conditions: S. epidermidis (CiproS), 23 isolates
E. faecium (CiproS) = experiment: In vitro MIC, agar dilution; format: cell-based; conditions: E. faecium (CiproS), 16 isolates
S. pneumoniae (PenS) = experiment: In vitro MIC, agar dilution; format: cell-based; conditions: S. pneumoniae (PenS), 20 isolates
H. influenzae = experiment: In vitro MIC, agar dilution; format: cell-based; conditions: H. influenzae, 18 isolates
P. aeruginosa (CiproR) = experiment: In vitro MIC, agar dilution; format: cell-based; conditions: P. aeruginosa (CiproR), 20 isolates
Enterococcus spp. (VanR) = experiment: In vitro MIC, agar dilution; format: cell-based; conditions: Enterococcus spp. (VanR), 21 isolates
B. fragilis = experiment: In vitro MIC, agar dilution; format: cell-based; conditions: B. fragilis, 18 isolates
C. perfringens = experiment: microbe, parasite or virus in culture; format: cell-based; conditions: C. perfringens, 13 isolates
S. aureus (CiproS) = experiment: In vitro MIC, agar dilution; format: cell-based; conditions: S. aureus (CiproS), 21 isolates
P. mirabilis = experiment: In vitro MIC, agar dilution; format: cell-based; conditions: P. mirabilis, 20 isolates
S. pneumoniae (CiproR) = experiment: In vitro MIC, agar dilution; format: cell-based; conditions: S. pneumoniae (CiproR), 3 isolates
P. aeruginosa (CiproS) = experiment: In vitro MIC, agar dilution; format: cell-based; conditions: P. aeruginosa (CiproS), 24 isolates
[1] = mice, single intraperitoneal injection, 21 days
E. faecium (CiproR) = experiment: In vitro MIC, agar dilution; format: cell-based; conditions: E. faecium (CiproR), 2 isolates

What does the source list for `Cc1c(N2CC[C@H](N)C2)c(F)cn2c(=O)c(C(=O)O)cc(C3CC3)c12.Cl` [Example 3, 1-cyclopropyl-8-(3(S)-3-amino-1-pyrrolidinyl)-7-fluoro-9-methyl-4-oxo-4H-quinolizine-3-carboxylic acid hydrochloride]?
MIC50 (C. freundii): 0.06 µg/mL; MIC90 (C. freundii): 0.25 µg/mL; MIC Range (C. freundii): 0.015 to 0.25 µg/mL; MIC50 (E. faecalis (VanS)): 0.25 µg/mL; MIC90 (E. faecalis (VanS)): 0.25 µg/mL; MIC Range (E. faecalis (VanS)): 0.12 to 0.25 µg/mL; MIC50 (Legionella spp.): 0.5 µg/mL; MIC90 (Legionella spp.): 1 µg/mL; MIC Range (Legionella spp.): 0.5 to 1 µg/mL; MIC50 (N. gonorrhoeae): 0.008 µg/mL; MIC90 (N. gonorrhoeae): 0.03 µg/mL; MIC Range (N. gonorrhoeae): 0.008 to 0.06 µg/mL; MIC Range (M. pneumoniae): 0.06 to 0.12 µg/mL; MIC50 (H. pylori): 0.12 µg/mL; MIC90 (H. pylori): 0.25 µg/mL; MIC Range (H. pylori): 0.06 to 0.5 µg/mL; MIC50 (Klebsiella spp.): 0.12 µg/mL; MIC90 (Klebsiella spp.): 0.12 µg/mL; MIC Range (Klebsiella spp.): 0.015 to 0.5 µg/mL; MIC50 (S. epidermidis (CiproR)): 0.25 µg/mL; MIC90 (S. epidermidis (CiproR)): 1 µg/mL; MIC Range (S. epidermidis (CiproR)): 0.25 to 2 µg/mL; MIC50 (Providencia spp.): 0.12 µg/mL; MIC90 (Providencia spp.): 0.25 µg/mL; MIC Range (Providencia spp.): 0.03 to 1 µg/mL; MIC50 (M. avium): 4 µg/mL; MIC90 (M. avium): 16 µg/mL; MIC Range (M. avium): 1 to 32 µg/mL; MIC50 (M. catarrhalis): 0.06 µg/mL; MIC90 (M. catarrhalis): 0.06 µg/mL; MIC Range (M. catarrhalis): 0.015 to 0.06 µg/mL; MIC50 (S. pneumoniae (PenR)): 0.12 µg/mL; MIC90 (S. pneumoniae (PenR)): 0.12 µg/mL; MIC Range (S. pneumoniae (PenR)): 0.06 to 0.12 µg/mL; MIC50 (S. pyogenes): 0.03 µg/mL; MIC90 (S. pyogenes): 0.06 µg/mL; MIC Range (S. pyogenes): 0.015 to 0.06 µg/mL; MIC50 (Enterobacter spp.): 0.06 µg/mL; MIC90 (Enterobacter spp.): 0.12 µg/mL; MIC Range (Enterobacter spp.): 0.03 to 0.5 µg/mL; MIC50 (C. difficile): 0.25 µg/mL; MIC90 (C. difficile): 0.5 µg/mL; MIC Range (C. difficile): 0.25 to 0.5 µg/mL; MIC50 (S. aureus (CiproR)): 0.25 µg/mL; MIC90 (S. aureus (CiproR)): 0.5 µg/mL; MIC Range (S. aureus (CiproR)): 0.06 to 2 µg/mL; MIC50 (Salmonella spp.): 0.06 µg/mL; MIC90 (Salmonella spp.): 0.06 µg/mL; MIC50 (E. coli): 0.03 µg/mL; MIC90 (E. coli): 0.06 µg/mL; MIC50 (S. epidermidis (CiproS)): 0.03 µg/mL; MIC90 (S. epidermidis (CiproS)): 0.06 µg/mL; MIC Range (S. epidermidis (CiproS)): 0.015 to 0.06 µg/mL; MIC50 (E. faecium (CiproS)): 0.5 µg/mL; MIC90 (E. faecium (CiproS)): 1 µg/mL; MIC Range (E. faecium (CiproS)): 0.25 to 1 µg/mL; MIC50 (S. pneumoniae (PenS)): 0.06 µg/mL; MIC90 (S. pneumoniae (PenS)): 0.12 µg/mL; MIC Range (S. pneumoniae (PenS)): 0.06 to 0.12 µg/mL; MIC50 (H. influenzae): 0.015 µg/mL; MIC90 (H. influenzae): 0.03 µg/mL; MIC Range (H. influenzae): 0.008 to 0.06 µg/mL; MIC50 (P. aeruginosa (CiproR)): 16 µg/mL; MIC90 (P. aeruginosa (CiproR)): 32 µg/mL; MIC Range (P. aeruginosa (CiproR)): 16 to 64 µg/mL; MIC50 (Enterococcus spp. (VanR)): 0.5 µg/mL; MIC90 (Enterococcus spp. (VanR)): 1 µg/mL; MIC Range (Enterococcus spp. (VanR)): 0.12 to 4 µg/mL; MIC50 (B. fragilis): 0.25 µg/mL; MIC90 (B. fragilis): 0.5 µg/mL; MIC Range (B. fragilis): 0.12 to 0.5 µg/mL; MIC50 (C. perfringens): 0.12 µg/mL; MIC90 (C. perfringens): 0.25 µg/mL; MIC Range (C. perfringens): 0.06 to 0.25 µg/mL; MIC Range (S. aureus (CiproS)): 0.015 to 0.06 µg/mL; MIC50 (P. mirabilis): 0.12 µg/mL; MIC90 (P. mirabilis): 0.25 µg/mL; MIC Range (P. mirabilis): 0.06 to 0.25 µg/mL; MIC Range (S. pneumoniae (CiproR)): 0.12 to 0.25 µg/mL; MIC50 (P. aeruginosa (CiproS)): 0.25 µg/mL; MIC90 (P. aeruginosa (CiproS)): 1 µg/mL; MIC Range (P. aeruginosa (CiproS)): 0.12 to 1 µg/mL; LD50 [1]: 105.0 mg/kg; MIC Range (E. faecium (CiproR)): 1 to 4 µg/mL
